Reference: US7138361B2, “Herbicidal heterocycles” (E. I. du Pont de Nemours and Company, priority 2000, dated 2006)

How the values were obtained:
Format in all cases: in vivo
[1] = test system: Surinam grass (Brachiaria decumbens); experiment: Test B postemergence
In short: (§1)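 Post-treatment, species sat 13–15 days under greenhouse conditions before visual scoring against controls, 0 (no effect) through 100 (complete control). Application preemergence to sown seeds or postemergence at 1- to 4-leaf stage, using a non-phytotoxic solvent/surfactant formulation.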

[2] = test system: barnyardgrass (Echinochloa crus-galli); experiment: Test B postemergence
In short: as §1

[3] = test system: blackgrass (Alopecurus myosuroides); experiment: Test B postemergence
In short: as §1

[4] = test system: cocklebur (Xanthium strumarium); experiment: Test B postemergence
In short: as §1

corn (Zea mays) [5] = experiment: Test B postemergence
In short: as §1

[6] = test system: crabgrass (Digitaria sanguinalis); experiment: Test B postemergence
In short: as §1

[7] = test system: giant foxtail (Setaria faberii); experiment: Test B postemergence
In short: as §1

[8] = test system: lambsquarters (Chenopodium album); experiment: Test B postemergence
In short: as §1

[9] = test system: morning glory (Ipomoea hederacea); experiment: Test B postemergence
In short: as §1

[10] = test system: pigweed (Amaranthus retroflexus); experiment: Test B postemergence
In short: as §1

[11] = test system: velvetleaf (Abutilon theophrasti); experiment: Test B postemergence
In short: as §1

[12] = test system: wheat (Triticum aestivum); experiment: Test B postemergence
In short: as §1

wild oat (Avena fatua) = experiment: Test B postemergence
In short: as §1

[13] = test system: Surinam grass (Brachiaria decumbens); experiment: Test B preemergence
In short: as §1

[14] = test system: barnyardgrass (Echinochloa crus-galli); experiment: Test B preemergence
In short: as §1

[15] = test system: cocklebur (Xanthium strumarium); experiment: Test B preemergence
In short: as §1

corn (Zea mays) [16] = experiment: Test B preemergence
In short: as §1

[17] = test system: crabgrass (Digitaria sanguinalis); experiment: Test B preemergence
In short: as §1

[18] = test system: giant foxtail (Setaria faberii); experiment: Test B preemergence
In short: as §1

[19] = test system: lambsquarters (Chenopodium album); experiment: Test B preemergence
In short: as §1

[20] = test system: morning glory (Ipomoea hederacea); experiment: Test B preemergence
In short: as §1

[21] = test system: pigweed (Amaranthus retroflexus); experiment: Test B preemergence
In short: as §1

rice (Oryza saliva) [22] = experiment: Test B preemergence
In short: as §1

[23] = test system: velvetleaf (Abutilon theophrasti); experiment: Test B preemergence
In short: as §1

rice (Oryza saliva) [24] = experiment: Test C flooded paddy test; conditions: for Rice plant response rating: Flooded Paddy, scale 0 to 100, 0 no effect, 100 complete control; for Plant response rating, Rice: flooded paddy test, scale 0 to 100 (0 no effect, 100 complete control)
In short: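 Plants were grown to the 2-leaf stage under flooded paddy conditions and treated. They were then kept in a greenhouse for 12 to 14 days and visually rated against untreated controls on a 0–100 scale, where 0 is no effect and 100 is complete control.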

Nightshade = experiment: Test C preemergence; conditions: visual evaluation after 12 to 14 days
Sunflower = experiment: Test C preemergence; conditions: scale 0 to 100, 0 no effect, 100 complete control
[25] = Rate 125 g/ha, scale 0 (no effect) to 100 (complete control), 13 to 15 days
[26] = Rate 500 g/ha, scale 0 to 100, 0 is no effect, 100 is complete control, 13 to 15 days
[27] = Preemergence, Rate 500 g/ha, scale 0 to 100, 0 no effect, 100 complete control
[28] = preemergence, Rate 125 g/ha, scale of 0 to 100 where 0 is no effect and 100 is complete control, 13 to 15 days
[29] = Rate 125 g/ha, scale 0 to 100, 0 no effect, 100 complete control
[30] = preemergence, Rate 125 g/ha, scale 0 to 100, 0 no effect, 100 complete control

## O=C1C(n2ccc(C3CCCCC3)n2)SCN1c1cccc(C(F)(F)F)c1 (centres unmarked) [Compound 52]
[1]; [25]
  Plant response rating, Surinam grass: 0
[1]; [26]
  Plant response rating, Surinam grass: 0
[2]; [25]
  Plant response rating, Barnyardgrass: 0
[2]; [26]
  Plant response rating, Barnyardgrass: 0
[3]; [25]
  Plant response rating, Blackgrass: 0
[3]; [26]
  Plant response rating, Blackgrass: 0
[4]; [25]
  Plant response rating, Cocklebur: 0
[4]; [26]
  Plant response rating, Cocklebur: 0
Corn (Zea mays) [5]; [25]
  Plant response rating, Corn: 20
Corn (Zea mays) [5]; [26]
  Plant response rating, Corn: 20
[6]; [25]
  Plant response rating, Crabgrass: 0
[6]; [26]
  Plant response rating, Crabgrass: 0
[7]; [25]
  Plant response rating, Foxtail, Giant: 0
[7]; [26]
  Plant response rating, Foxtail, Giant: 0
[8]; [25]
  Plant response rating, Lambsquarters: 0
[8]; [26]
  Plant response rating, Lambsquarters: 0
[9]; [25]
  Plant response rating, Morningglory: 0
[9]; [26]
  Plant response rating, Morningglory: 0
[10]; [25]
  Plant response rating, Pigweed: 0
[10]; [26]
  Plant response rating, Pigweed: 0
[11]; [25]
  Plant response rating, Velvetleaf: 0
[11]; [26]
  Plant response rating, Velvetleaf: 0
[12]; [25]
  Plant response rating, Wheat: 0
[12]; [26]
  Plant response rating, Wheat: 0
Wild oat (Avena fatua); [25]
  Plant response rating, Wild Oat: 0
Wild oat (Avena fatua); [26]
  Plant response rating, Wild Oat: 0
[13]; [27]
  Plant response rating, Surinam grass: 0
[13]; [28]
  Plant response rating, Surinam grass: 0
[14]; [27]
  Plant response rating, Barnyardgrass: 100
[14]; [28]
  Plant response rating, Barnyardgrass: 0
[15]; [27]
  Plant response rating, Cocklebur: 0
[15]; [28]
  Plant response rating, Cocklebur: 0
Corn (Zea mays) [16]; [27]
  Plant response rating, Corn: 20
Corn (Zea mays) [16]; [28]
  Plant response rating, Corn: 0
[17]; [27]
  Plant response rating, Crabgrass: 100
[17]; [28]
  Plant response rating, Crabgrass: 100
[18]; [27]
  Plant response rating, Foxtail, Giant: 100
[18]; [28]
  Plant response rating, Foxtail, Giant: 90
[19]; [27]
  Plant response rating, Lambsquarters: 100
[19]; [28]
  Plant response rating, Lambsquarters: 100
[20]; [27]
  Plant response rating, Morningglory: 0
[20]; [28]
  Plant response rating, Morningglory: 0
[21]; [27]
  Plant response rating, Pigweed: 30
[21]; [28]
  Plant response rating, Pigweed: 0
Rice (Oryza saliva) [22]; [27]
  Plant response rating, Rice: 0
Rice (Oryza saliva) [22]; [28]
  Plant response rating, Rice: 0
[23]; [27]
  Plant response rating, Velvetleaf: 0
Rice (Oryza saliva) [24]; Rate 250 g/ha
  Rice plant response rating: 0
Rice (Oryza saliva) [24]; Rate 500 g/ha
  Rice plant response rating: 60
Rice (Oryza saliva) [24]; Rate 62 g/ha
  Plant response rating, Rice: 0
Rice (Oryza saliva) [24]; Rate 125 g/ha
  Plant response rating, Rice: 0
Nightshade; Rate 250 g/ha
  Plant response rating (0 to 100), Nightshade: 30
Sunflower; Rate 125 g/ha
  Plant response rating, Sunflower: 0

## CCCC(C)c1ccn(C2CCN(c3ccc(Cl)c(OC)c3)C2=O)n1 (centres unmarked) [Compound 121]
[1]; [29]
  Plant response rating, Surinam grass: 30
[1]; [26]
  Plant response rating, Surinam grass: 40
[2]; [29]
  Plant response rating, Barnyardgrass: 0
[2]; [26]
  Plant response rating, Barnyardgrass: 90
[3]; [29]
  Plant response rating, Blackgrass: 0
[3]; [26]
  Plant response rating, Blackgrass: 0
[4]; [29]
  Plant response rating, Cocklebur: 70
[4]; [26]
  Plant response rating, Cocklebur: 100
Corn (Zea mays) [5]; [29]
  Plant response rating, Corn: 20
Corn (Zea mays) [5]; [26]
  Plant response rating, Corn: 30
[6]; [29]
  Plant response rating, Crabgrass: 30
[7]; [29]
  Plant response rating, Foxtail, Giant: 0
[8]; [29]
  Plant response rating, Lambsquarters: 80
[9]; [29]
  Plant response rating, Morningglory: 50
[10]; [29]
  Plant response rating, Pigweed: 50
[11]; [29]
  Plant response rating, Velvetleaf: 30
[12]; [29]
  Plant response rating, Wheat: 50
Wild oat (Avena fatua); [29]
  Plant response rating, Wild Oat: 30
[13]; [27]
  Plant response rating, Surinam grass: 40
[13]; [28]
  Plant response rating, Surinam grass: 0
[14]; [27]
  Plant response rating, Barnyardgrass: 100
[14]; [28]
  Plant response rating, Barnyardgrass: 40
[15]; [27]
  Plant response rating, Cocklebur: 30
[15]; [28]
  Plant response rating, Cocklebur: 10
Corn (Zea mays) [16]; [27]
  Plant response rating, Corn: 50
Corn (Zea mays) [16]; [28]
  Plant response rating, Corn: 20
[17]; [27]
  Plant response rating, Crabgrass: 100
[17]; [28]
  Plant response rating, Crabgrass: 10
[18]; [27]
  Plant response rating, Foxtail, Giant: 100
[18]; [28]
  Plant response rating, Foxtail, Giant: 0
[19]; [27]
  Plant response rating, Lambsquarters: 100
[19]; [28]
  Plant response rating, Lambsquarters: 100
[20]; [27]
  Plant response rating, Morningglory: 30
[20]; [28]
  Plant response rating, Morningglory: 20
[21]; [27]
  Plant response rating, Pigweed: 100
[21]; [28]
  Plant response rating, Pigweed: 100
Rice (Oryza saliva) [22]; [27]
  Plant response rating, Rice: 0
Rice (Oryza saliva) [22]; [28]
  Plant response rating, Rice: 0
[23]; [27]
  Plant response rating, Velvetleaf: 20
[23]; [28]
  Plant response rating, Velvetleaf: 10
Rice (Oryza saliva) [24]; Rate 250 g/ha
  Rice plant response rating: 0
Rice (Oryza saliva) [24]; Rate 500 g/ha
  Rice plant response rating: 0
Rice (Oryza saliva) [24]; Rate 125 g/ha
  Plant response rating, Rice: 0
Nightshade; Rate 500 g/ha
  Plant response rating (0 to 100), Nightshade: 100
Sunflower; Rate 250 g/ha
  Plant response rating, Sunflower: 50

## CC(C)(C)c1ccn(C2CCN(c3cccc(Br)c3)C2=O)n1 (centres unmarked) [Compound 33]
[1]; [25]
  Plant response rating, Surinam grass: 0
[1]; [26]
  Plant response rating, Surinam grass: 0
[2]; [25]
  Plant response rating, Barnyardgrass: 0
[2]; [26]
  Plant response rating, Barnyardgrass: 0
[3]; [25]
  Plant response rating, Blackgrass: 0
[3]; [26]
  Plant response rating, Blackgrass: 0
[4]; [25]
  Plant response rating, Cocklebur: 0
[4]; [26]
  Plant response rating, Cocklebur: 10
Corn (Zea mays) [5]; [25]
  Plant response rating, Corn: 0
Corn (Zea mays) [5]; [26]
  Plant response rating, Corn: 0
[6]; [25]
  Plant response rating, Crabgrass: 0
[6]; [26]
  Plant response rating, Crabgrass: 0
[7]; [25]
  Plant response rating, Foxtail, Giant: 0
[7]; [26]
  Plant response rating, Foxtail, Giant: 20
[8]; [25]
  Plant response rating, Lambsquarters: 70
[8]; [26]
  Plant response rating, Lambsquarters: 80
[9]; [25]
  Plant response rating, Morningglory: 0
[9]; [26]
  Plant response rating, Morningglory: 10
[10]; [25]
  Plant response rating, Pigweed: 70
[10]; [26]
  Plant response rating, Pigweed: 80
[11]; [25]
  Plant response rating, Velvetleaf: 0
[11]; [26]
  Plant response rating, Velvetleaf: 0
[12]; [25]
  Plant response rating, Wheat: 0
[12]; [26]
  Plant response rating, Wheat: 0
Wild oat (Avena fatua); [25]
  Plant response rating, Wild Oat: 0
Wild oat (Avena fatua); [26]
  Plant response rating, Wild Oat: 0
[13]; [27]
  Plant response rating, Surinam grass: 60
[13]; [30]
  Plant response rating, Surinam grass: 30
[14]; [27]
  Plant response rating, Barnyardgrass: 80
[14]; [30]
  Plant response rating, Barnyardgrass: 30
[15]; [30]
  Plant response rating, Cocklebur: 0
Corn (Zea mays) [16]; [27]
  Plant response rating, Corn: 0
Corn (Zea mays) [16]; [30]
  Plant response rating, Corn: 0
[17]; [27]
  Plant response rating, Crabgrass: 100
[17]; [30]
  Plant response rating, Crabgrass: 0
[18]; [27]
  Plant response rating, Foxtail, Giant: 80
[18]; [30]
  Plant response rating, Foxtail, Giant: 20
[19]; [27]
  Plant response rating, Lambsquarters: 100
[19]; [30]
  Plant response rating, Lambsquarters: 90
[20]; [27]
  Plant response rating, Morningglory: 0
[21]; [27]
  Plant response rating, Pigweed: 100
Rice (Oryza saliva) [22]; [27]
  Plant response rating, Rice: 0
[23]; [27]
  Plant response rating, Velvetleaf: 0
Nightshade; Rate 250 g/ha
  Plant response rating (0 to 100), Nightshade: 0
Sunflower; Rate 125 g/ha
  Plant response rating, Sunflower: 0
